# Test results taken from ChEMBL document CHEMBL5036349, “Development of potent dual PDK1/AurA kinase inhibitors for cancer therapy: Lead-optimization, structural insights, and ADME-Tox profile” (Eur J Med Chem, 2021).
# What was measured:
# [1] = Cytotoxicity against human 6647 cells measured after 72 hrs by MTT assay; type: functional, cell-based; conditions: Homo sapiens, 6647, 72 h
# Rec1 [2] = experiment: Cytotoxicity against human REC1 cells measured after 72 hrs by MTT assay; type: functional, cell-based; conditions: Rec1, 72 h
# PC-3 [3] = experiment: Cytotoxicity against human PC-3 cells measured after 72 hrs by MTT assay; type: functional, cell-based; conditions: PC-3, 72 h
# [4] = Cytotoxicity against human 6647 cells at 30 uM assessed as cell proliferation rate measured after 72 hrs by MTT assay relative to control; type: functional
# NCI-H69 [5] = experiment: Cytotoxicity against human NCI-H69 cells measured after 72 hrs by MTT assay; type: functional, cell-based; conditions: NCI-H69, 72 h
# 786-0 [6] = experiment: Cytotoxicity against human 786-0 cells measured after 72 hrs by MTT assay; type: functional, cell-based; conditions: 786-0, 72 h
# SK-N-MC [7] = experiment: Cytotoxicity against human SK-N-MC cells measured after 72 hrs by MTT assay; type: functional, cell-based
# NCI-H82 [8] = experiment: Cytotoxicity against human NCI-H82 cells measured after 72 hrs by MTT assay; type: functional, cell-based; conditions: NCI-H82, 72 h
# Rec1 [9] = experiment: Cytotoxicity against human REC1 cells at 30 uM assessed as cell proliferation rate measured after 72 hrs by MTT assay relative to control; type: functional
# HCT-116 [10] = experiment: Cytotoxicity against human HCT-116 cells at 30 uM assessed as cell proliferation rate measured after 72 hrs by MTT assay relative to control; type: functional
# A673 [11] = experiment: Cytotoxicity against human A673 cells measured after 72 hrs by MTT assay; type: functional, cell-based; conditions: A673, 72 h
# TC-32 [12] = experiment: Cytotoxicity against human TC-32 cells measured after 72 hrs by MTT assay; type: functional, cell-based; conditions: TC-32, 72 h
# NCI-H69 [13] = experiment: Cytotoxicity against human NCI-H69 cells at 30 uM assessed as cell proliferation rate measured after 72 hrs by MTT assay relative to control; type: functional
# SK-N-MC [14] = experiment: Cytotoxicity against human SK-N-MC cells at 30 uM assessed as cell proliferation rate measured after 72 hrs by MTT assay relative to control; type: functional
# CAKI-1 [15] = experiment: Cytotoxicity against human CAKI-1 cells at 30 uM assessed as cell proliferation rate measured after 72 hrs by MTT assay relative to control; type: functional
# IGROV-1 [16] = experiment: Cytotoxicity against human IGROV-1 cells measured after 72 hrs by MTT assay; type: functional, cell-based; conditions: IGROV-1, 72 h
# TC-32 [17] = experiment: Cytotoxicity against human TC-32 cells at 30 uM assessed as cell proliferation rate measured after 72 hrs by MTT assay relative to control; type: functional
# CAKI-1 [18] = experiment: Cytotoxicity against human CAKI-1 cells measured after 72 hrs by MTT assay; type: functional, cell-based; conditions: CAKI-1, 72 h
# PC-3 [19] = experiment: Cytotoxicity against human PC-3 cells at 30 uM assessed as cell proliferation rate measured after 72 hrs by MTT assay relative to control; type: functional
# 786-0 [20] = experiment: Cytotoxicity against human 786-0 cells at 30 uM assessed as cell proliferation rate measured after 72 hrs by MTT assay relative to control; type: functional
# NCI-H82 [21] = experiment: Cytotoxicity against human NCI-H82 cells at 30 uM assessed as cell proliferation rate measured after 72 hrs by MTT assay relative to control; type: functional
# MCF7 [22] = experiment: Cytotoxicity against human MCF7 cells at 30 uM assessed as cell proliferation rate measured after 72 hrs by MTT assay relative to control; type: functional
# [23] = Cytotoxicity against human TC71 cells at 30 uM assessed as cell proliferation rate measured after 72 hrs by MTT assay relative to control; type: functional; conditions: TC-71
# IGROV-1 [24] = experiment: Cytotoxicity against human IGROV-1 cells at 30 uM assessed as cell proliferation rate measured after 72 hrs by MTT assay relative to control; type: functional
# HCT-116 [25] = experiment: Cytotoxicity against human HCT-116 cells measured after 72 hrs by MTT assay; type: functional, cell-based; conditions: HCT-116, 72 h
# [26] = Cytotoxicity against human TC71 cells measured after 72 hrs by MTT assay; type: functional, cell-based; conditions: TC-71, 72 h
# A673 [27] = experiment: Cytotoxicity against human A673 cells at 30 uM assessed as cell proliferation rate measured after 72 hrs by MTT assay relative to control; type: functional
# MCF7 [28] = experiment: Cytotoxicity against human MCF7 cells measured after 72 hrs by MTT assay; type: functional, cell-based; conditions: MCF7, 72 h
smiles,measurement,setting,value
NCC(=O)Nc1ccc(-n2nc(C(F)(F)F)cc2-c2ccc3c(ccc4ccccc43)c2)cc1 [AR-12],IC50,[1],0.3 µM
same,IC50,Rec1 [2],3.8 µM
same,IC50,PC-3 [3],6.5 µM
same,Emax at 30 µM,[4],89%
same,IC50,NCI-H69 [5],1.8 µM
same,IC50,786-0 [6],2.9 µM
same,IC50,SK-N-MC [7],6 µM
same,IC50,NCI-H82 [8],4 µM
same,Emax at 30 µM,Rec1 [9],90%
same,Emax at 30 µM,HCT-116 [10],95%
same,IC50,A673 [11],2.1 µM
same,IC50,TC-32 [12],2 µM
same,Emax at 30 µM,NCI-H69 [13],80%
same,Emax at 30 µM,SK-N-MC [14],81%
same,Emax at 30 µM,CAKI-1 [15],95%
same,IC50,IGROV-1 [16],3.7 µM
same,Emax at 30 µM,TC-32 [17],75%
same,IC50,CAKI-1 [18],5 µM
same,Emax at 30 µM,PC-3 [19],80%
same,Emax at 30 µM,786-0 [20],80%
same,Emax at 30 µM,NCI-H82 [21],90%
same,Emax at 30 µM,MCF7 [22],89%
same,Emax at 30 µM,[23],95%
same,Emax at 30 µM,IGROV-1 [24],91%
same,IC50,HCT-116 [25],2.7 µM
same,IC50,[26],0.8 µM
same,Emax at 30 µM,A673 [27],95%
same,IC50,MCF7 [28],2.8 µM
